Assay results reported in patent US10441588B2, “Methods and compositions for treating bacterial infection” (Curators of the University of Missouri, priority 2012, dated 2019).
Where a name gives a salt, the structure may show the parent alone. Read-outs that look alike come from different tables or passages of the source.

Key:
[1] = tested on: S. aureus biofilm; assay: S. aureus biofilm inhibition, optical density, test/control; format: cell-based, Staphylococcus aureus; conditions: Staphylococcus aureus, growth of biofilm test/control by optical density
[2] = tested on: S. aureus; assay: S. aureus growth inhibition, optical density, test/control; format: cell-based, Staphylococcus aureus; conditions: Staphylococcus aureus, growth of bacteria test/control by optical density
[3] = 50 μM, read-out: S. aureus Biofilm Inhibition 50 μM vs. (−) Control
[4] = 5 μM, read-out: S. aureus Biofilm Inhibition 5 μM vs. (−) Control

`C=CCn1c(SCc2cccc(OC)c2)nc2c(c1=O)C1(CCCCC1)Cc1ccccc1-2` [CCG-102485] showed an activity at 100 µM [1] of 49.5% and an activity at 100 µM [2] of 114%.

`C=CCn1c(SCc2ccc(NC(C)=O)cc2)nc2c(c1=O)C1(CCCCC1)Cc1ccccc1-2` [CCG-102491] showed an activity at 100 µM [1] of 75% and an activity at 100 µM [2] of 84.8%.

In the case of `C=CCn1c(SCCOC)nc2c(c1=O)C1(CCCCC1)Cc1ccccc1-2` [CCG-102493], the activity at 100 µM [1] is reported as 66% and the activity at 100 µM [2] is reported as 72.1%.

`C=CCn1c(SCCN(C)C)nc2c(c1=O)C1(CCCCC1)Cc1ccccc1-2` [CCG-102495] showed an activity at 100 µM [1] of 78.9% and an activity at 100 µM [2] of 93%.

`C=CCn1c(SC)nc2c(c1=O)C1(CCCCC1)Cc1ccccc1-2` [CCG-102620] gave an activity at 100 µM [1] of 76.5% and an activity at 100 µM [2] of 95.3%.

In the case of `C=CCn1c(OCC)nc2c(c1=O)C1(CCCCC1)Cc1ccccc1-2` [CCG-102622], the activity at 100 µM [1] is reported as 68.6% and the activity at 100 µM [2] is reported as 77.7%.

Work on `C=CCn1c(SCc2ccccn2)nc2c(c1=O)C(C)(C)Cc1ccccc1-2` [CCG-203039] yielded an activity at 100 µM [1] of 71% and an activity at 100 µM [2] of 95.9%.

`C=CCn1c(SCCO)nc2c(c1=O)C(C)(C)Cc1ccccc1-2` [CCG-203041] showed an activity at 100 µM [1] of 47.7% and an activity at 100 µM [2] of 89.7%.

Work on `C=CCn1c(SCCOC)nc2c(c1=O)CC(C)c1ccccc1-2` (centres unmarked) [CCG-203574] yielded an activity at 100 µM [1] of 46.5% and an activity at 100 µM [2] of 73.8%.

For `CCn1c(SCCOC)nc2c(c1=O)C(C)(C)Cc1ccccc1-2` [CCG-203598], the activity at 100 µM [1] was 61% and the activity at 100 µM [2] was 85.5%.

`C=CCn1c(SCC)nc2c(c1=O)C(C)(C)Cc1ccc(OC)cc1-2` [CCG-203625] was tested, and the activity at 10 µM [1] was 51.3%.

`COCCSc1nc(OCC2OCCO2)c2c(n1)-c1ccccc1CC2(C)C` [CCG-203627] showed an activity at 100 µM [1] of 49.6% and an activity at 100 µM [2] of 80.6%.

With `C=CCn1c(SCC)nc2c(c1=O)C(C)(C)Cc1c(OC)cccc1-2` [CCG-203629] the activity at 100 µM [1] was 35.1% and the activity at 100 µM [2] was 66.7%.

Work on `C=CCn1c(SCC)nc2c(c1=O)C(C)(C)Cc1c(O)cccc1-2` [CCG-203631] yielded an activity at 100 µM [1] of 31.1% and an activity at 100 µM [2] of 76.7%.

`C=CCn1c(SCC)nc2c(c1=O)C(C)(C)Cc1c(OCCOC)cccc1-2` [CCG-203633] gave an activity at 100 µM [1] of 54% and an activity at 100 µM [2] of 76.2%.

Compound `CCSc1nc2c(c(=O)n1CCOC)C(C)(C)Cc1ccccc1-2` [CCG-203802, 2-(ethylthio)-3-(2-methoxyethyl)-5,5-dimethyl-5,6-dihydrobenzo[h]quinazolin-4(3H)-one] has an activity at 100 µM [1] of 55.7% and an activity at 100 µM [2] of 67.7%.

Work on `C=CCn1c(OCC)nc2c(c1=O)C(C)(C)Cc1ccccc1-2` [CCG-203803] yielded an activity at 100 µM [1] of 76.8% and an activity at 100 µM [2] of 81.9%.

`COCCSc1nc2c(c(=O)n1CCOc1ccc(F)cc1)C(C)(C)Cc1ccccc1-2` [CCG-204027, 3-(2-(4-Fluorophenoxy)ethyl)-2-((2-methoxyethyl)thio)-5,5-dimethyl-5,6-dihydrobenzo-[h]quinazolin-4(3H)-one] gave an activity at 100 µM [1] of 74.8% and an activity at 100 µM [2] of 108%.

`COCCSc1nc(OCCOc2ccc(F)cc2)c2c(n1)-c1ccccc1CC2(C)C` [CCG-204028, 4-(2-(4-Fluorophenoxy)ethoxy)-2-((2-methoxyethyl)thio)-5,5-dimethyl-5,6-dihydrobenzo[h]-quinazoline] showed an activity at 100 µM [1] of 70% and an activity at 100 µM [2] of 113%.

`COCCSc1nc2c(c(=O)n1CC1OCCO1)C(C)(C)Cc1ccccc1-2` [CCG-204029, 3-((1,3-Dioxolan-2-yl)methyl)-2-((2-methoxyethyl)thio)-5,5-dimethyl-5,6-dihydrobenzo[h]-quinazolin-4(3H)-one] showed an activity at 100 µM [1] of 63.6% and an activity at 100 µM [2] of 94.3%.

With `COCCSc1nc2c(c(=O)n1CCCC#N)C(C)(C)Cc1ccccc1-2` [CCG-204031, 4-(2-((2-Methoxyethyl)thio)-5,5-dimethyl-4-oxo-5,6-dihydrobenzo[h]quinazolin-3(4H)-yl)butanenitrile] the activity at 100 µM [1] was 59.2% and the activity at 100 µM [2] was 98.5%.

With `COCCSc1nc2c(c(=O)n1Cc1ccc(OC)cc1)C(C)(C)Cc1ccccc1-2` [CCG-204036, 3-(4-Methoxybenzyl)-2-((2-methoxyethyl)thio)-5,5-dimethyl-5,6-dihydrobenzo[h]quin-azolin-4(3H)-one] the activity at 100 µM [1] was 76.5% and the activity at 100 µM [2] was 112%.

Work on `COCCSc1nc(OCc2ccc(OC)cc2)c2c(n1)-c1ccccc1CC2(C)C` [CCG-204037, 4-((4-Methoxybenzyl)oxy)-2-((2-methoxyethyl)thio)-5,5-dimethyl-5,6-dihydrobenzo[h]-quinazoline] yielded an activity at 100 µM [1] of 65.7% and an activity at 100 µM [2] of 110%.

In the case of `COCCSc1nc(OCC(=O)c2ccc(F)c(F)c2)c2c(n1)-c1ccccc1CC2(C)C` [CCG-204040, 1-(3,4-Difluorophenyl)-2-((2-((2-methoxyethyl)thio)-5,5-dimethyl-5,6-dihydrobenzo[h]-quinazolin-4-yl)oxy)ethanone], the activity at 100 µM [1] is reported as 65.9% and the activity at 100 µM [2] is reported as 119%.

For `C=CCn1c(SCCOC)nc2c(c1=O)C(C)(C)Cc1cnccc1-2` [CCG-204041, 3-allyl-2-((2-methoxyethyl)thio)-5,5-dimethyl-5,6-dihydropyrido[3,4-h]quinazolin-4(3H)-one], the activity at 100 µM [1] was 75.7% and the activity at 100 µM [2] was 90.2%.

Compound `C=CCn1c(SCC)nc2c(c1=O)C(C)(C)Cc1cc(OCC(=O)O)ccc1-2` [CCG-205434] has an activity at 100 µM [1] of 32.5%.

Work on `C=CCn1c(SCCOC)nc2c(c1=O)C1(CCN(C(=O)OCC)CC1)Cc1ccccc1-2` [CCG-206233, Ethyl 3-allyl-2-((2-methoxyethyl)thio)-4-oxo-4,6-dihydro-3H-spiro[benzo[h]quinazoline-5,4′-piperidine]-1′-carboxylate] yielded an activity at 50 µM [1, 3] of 59.4%.

In the case of `C=CCOc1nc(SCC)nc2c1C(C)(C)Cc1ccc(OC)cc1-2` [CCG-206358], the activity at 10 µM [1] is reported as 55.7% and the activity at 100 µM [1] is reported as 70%.

`C=CCOc1nc(SCCOC)nc2c1C1(CCN(C(=O)CCCC)CC1)Cc1cc(OC)ccc1-2` [CCG-208863, 1-(4-(allyloxy)-8-methoxy-2-((2-methoxyethyl)thio)-6H-spiro[benzo[h]quinazoline-5,4′-piperidin]-1′-yl)pentan-1-one] gave an activity at 5 µM [1, 4] of 72.1% and an activity at 50 µM [1, 3] of 68.6%.

`C=CCn1c(SCCOC)nc2c(c1=O)C1(CCN(C(=O)OC(C)(C)C)C1)Cc1cc(OC)ccc1-2` (centres unmarked) [CCG-208864, tert-butyl 3-allyl-8-methoxy-2-((2-methoxyethyl)thio)-4-oxo-4,6-dihydro-3H-spiro[benzo[h]quinazoline-5,3′-pyrrolidine]-1′-carboxylate] was tested, and the activity at 5 µM [1, 4] was 49.5% and the activity at 50 µM [1, 3] was 49.1%.

In the case of `C=CCn1c(SCCOC)nc2c(c1=O)C1(CCNC1)Cc1cc(OC)ccc1-2` (centres unmarked) [CCG-208865, 3-allyl-8-methoxy-2-((2-methoxyethyl)thio)-3H-spiro[benzo[h]quinazoline-5,3′-pyrrolidine]-4(6H)-one hydrochloride], the activity at 5 µM ([1]; read-out: S. aureus Biofilm Inhibition 5 μM vs. (−) Control, 5 μM) is reported as 80.3% and the activity at 50 µM ([1]; read-out: S. aureus Biofilm Inhibition 50 μM vs. (−) Control, 50 μM) is reported as 65.2%.

Compound `C=CCn1c(SCCOC)nc2c(c1=O)C1(CCN(C)CC1)Cc1cc(OC)ccc1-2` [CCG-208981, 3-allyl-8-methoxy-2-((2-methoxyethyl)thio)-1′-methyl-3H-spiro[benzo[h]quinazoline-5,4′-piperidin]-4(6H)-one] has an activity at 5 µM [1, 4] of 88.5% and an activity at 50 µM [1, 3] of 70.6%.

In the case of `CCSc1nc(OC)c2c(n1)-c1cc(OC)ccc1CC2(C)C` [CCG-211793, 2-(ethylthio)-4,9-dimethoxy-5,5-dimethyl-5,6-dihydrobenzo[h]quinazoline], the activity at 5 µM [1, 4] is reported as 122% and the activity at 50 µM [1, 3] is reported as 72.2%.

`COc1ccc2c(c1)CC1(CCN(C(=O)OC(C)(C)C)CC1)c1c(OC)nc(SCC#N)nc1-2` [CCG-211810, tert-butyl 2-((cyanomethyl)thio)-4,8-dimethoxy-6H-spiro[benzo[h]quinazoline-5,4′-piperidine]-1′-carboxylate] showed an activity at 5 µM [1, 4] of 68.2% and an activity at 50 µM [1, 3] of 75%.

In the case of `COc1ccc2c(c1)CC1(CCN(C(=O)OC(C)(C)C)CC1)c1c-2nc(SCC#N)n(C)c1=O` [CCG-211811, tert-butyl 2-((cyanomethyl)thio)-8-methoxy-3-methyl-4-oxo-4,6-dihydro-3H-spiro[benzo[h]quinazoline-5,4′-piperidine]-1′-carboxylate], the activity at 5 µM [1, 4] is reported as 67.8% and the activity at 50 µM [1, 3] is reported as 70.2%.

For `COc1ccc2c(c1)CC1(CCN(C(=O)OC(C)(C)C)CC1)c1c(OCC#N)nc(SCC#N)nc1-2` [CCG-211812, tert-butyl 4-(cyanomethoxy)-2-((cyanomethyl)thio)-8-methoxy-6H-spiro[benzo[h]quinazoline-5,4′-piperidine]-1′-carboxylate], the activity at 5 µM [1, 4] was 75.2% and the activity at 50 µM [1, 3] was 75%.

`C=CCn1c(SCCOC)nc2c(c1=O)C1(CCN(C(=O)NCC(=O)OCC)CC1)Cc1cc(OC)ccc1-2` [CCG-211972, ethyl (3-allyl-8-methoxy-2-((2-methoxyethyl)thio)-4-oxo-4,6-dihydro-3H-spiro[benzo[h]quinazoline-5,4′-piperidine]-1′-carbonyl)glycinate] was tested, and the activity at 5 µM [1, 4] was 125% and the activity at 50 µM [1, 3] was 68%.

`C=CCOc1nc(SCC#N)nc2c1C(C)(C)Cc1ccc(OC)cc1-2` [CCG-212010, 2-((4-(allyloxy)-9-methoxy-5,5-dimethyl-5,6-dihydrobenzo[h]quinazolin-2-yl)thio)acetonitrile] showed an activity at 5 µM [1, 4] of 55% and an activity at 50 µM [1, 3] of 35%.

`COc1ccc2c(c1)-c1nc(SCC#N)nc(OCC#N)c1C(C)(C)C2` [CCG-212011, 2-((4-(cyanomethoxy)-9-methoxy-5,5-dimethyl-5,6-dihydrobenzo[h]quinazolin-2-yl)thio)acetonitrile] was tested, and the activity at 5 µM [1, 4] was 48% and the activity at 50 µM [1, 3] was 29%.

In the case of `COc1ccc2c(c1)-c1nc(SCC#N)n(CC#N)c(=O)c1C(C)(C)C2` [CCG-212012, 2-((3-(cyanomethyl)-9-methoxy-5,5-dimethyl-4-oxo-3,4,5,6-tetrahydrobenzo[h]quinazolin-2-yl)thio)acetonitrile], the activity at 5 µM [1, 4] is reported as 55% and the activity at 50 µM [1, 3] is reported as 27%.
